Results on 1 compound are retold here after PMC11873939, “Target Identification with Live-Cell Photoaffinity Labeling and Mechanism of Action Elucidation of ARN23765, a Highly Potent CFTR Corrector” (Journal of Medicinal Chemistry, 2025).

The target of one experiment is T1, wt-CFTR (Homo sapiens, UniProt P13569).
T1 construct: expressed in transfected cells
Put plainly: Live-cell photoaffinity labeling, streptavidin pull-down and CFTR Western blot. Type of experiment: binding. As to conditions: wt-CFTR CFBE41o- cells, 25-fold excess (25 μM) competitor 30 min before probe (1 μM). As for the experimental part:
(§1) Wt-CFTR or F508del-CFTR CFBE41o- cells were plated at 2–2.5 × 10^6 cells/plate in 6 cm diameter dishes. The day after, sodium butyrate (5–2.5 mM) was added for 24 h; next, the medium was exchanged with fresh one supplemented with DMSO (0.25%) (276855, Sigma-Aldrich) or probe (1 μM). For competition experiments, a 25-fold excess of ARN23765 (25 μM) was added 30 min before probe’s addition. For the analysis of “corrected” F508del-CFTR, F508del-CFTR CFBE41o- cells were kept at 27 °C for 24 h before adding the probes. Probes were incubated with cells for 2 h, then the medium was removed, and plates were washed twice with phosphate buffer saline (PBS). Cells were placed on ice and irradiated for 5 min at a wavelength of 365 nm using a 100-W UV-lamp (95–0127–02 model B100-AP, Analytik Jena). Cells were harvested with trypsin (T4299, Sigma-Aldrich), washed with PBS (D8537, Sigma-Aldrich), and pellets were stored at −80 °C until used, centrifuged at 300 × g and washed twice with PBS (D8537, Sigma-Aldrich). Pellets from in-cell photoaffinity labeling with alkyne-probes (PAP_1 and PAP_2) were lysed in PBS plus protease inhibitor cocktail (78429, Thermo Scientific) by sonication. The suspension was centrifuged at 800 × g for 20 min at 4 °C to discard nuclei and cell debris. The total extracted proteins were quantified with the bicinchoninic acid (BCA) protein assay (23225, Thermo Scientific) and subjected to CuAAC before proceeding with pull-down. Pellets from in-cell photoaffinity labeling with desthio-biotinylated (DS-biot) probes (PAP_1 DS-biot, PAP_2 DS-biot, PAP_N1 DS-biot, PAP_N2 DS-biot) were lysed with a modified RIPA buffer [50 mM tris-HCl pH 8, 150 mM NaCl, 0.5% Triton-X100, 0.2% SDS, 1 mM ethylenediaminetetraacetic acid (EDTA)] supplemented with protease inhibitor cocktail and centrifuged at 10.000× g for 10 min. The protein content in the supernatant was quantified by BCA protein assay. Protein lysate (200 μg) was diluted to 800 μL and the Triton-X100 percentage was reduced to 0.2% before proceeding to pull-down.
Copper-catalyzed azide–alkyne cycloaddition (CuAAC) was performed according to a previously described protocol.[62] Briefly, to the protein preparation (250 μL at 1 mg/mL protein concentration) the following reagents were added at the indicated final concentrations: 100 μM 5/6-TAMRA-azide-desthiobiotin (CLK-1110–5, Jena Bioscience), 1.0 mM tris-(2-carbossietil)phosphine (TCEP, C4706, Sigma-Aldrich), 100 μM tris-[(1-benzyl-1H-1,2,3-triazol-4-yl)methyl]amine (TBTA, 678937, Sigma-Aldrich), 1.0 mM CuSO4.5H2O (Sigma), and 0.8% sodium dodecyl sulfate (SDS). TBTA was first dissolved in DMSO at 83.5 mM and then diluted with four volumes of tert-butanol. The reaction was mixed by vortexing and incubated for 1 h at 25 °C. After the reaction time, proteins were precipitated with 5 volumes of cold acetone overnight at −20 °C. Samples were centrifuged for 20 min at 20.000× g, and the pellets were washed with methanol, air-dried, and finally resuspended with 600 μL of 1% SDS. SDS concentration was then diluted to 0.2% with PBS before proceeding to pull-down.
(§2) High capacity streptavidin agarose (20359, Thermo Scientific) (25 μL) was added to PAP-labeled cell extracts for 1 h at room temperature under gentle rotation. The streptavidin beads were collected by centrifugation and washed four times with lysis buffer. Resin-bound proteins were eluted with 45 μL of 5 mM biotin (B4501, Sigma-Aldrich) for 30 min at room temperature and analyzed with Western blot for CFTR expression. Input samples (4 and 8 μg for wt-CFTR and F508del-CFTR CFBE41o-, respectively) were collected immediately before incubation with streptavidin resin. Input and pulled-down samples were analyzed with WB as described in the supplementary methods.
A general note: A western blot detects proteins with antibodies after separation by electrophoresis.

Another experiment has as its target T2, F508del-CFTR (Homo sapiens, UniProt P13569, DEL508-508).
T2 construct: expressed in transfected cells
Described as above. Type of experiment: binding. As to conditions: F508del-CFTR CFBE41o- cells, 25-fold excess (25 μM) competitor 30 min before probe (1 μM). How it is done:
as §1, §2

T2 sequence (P13569 with tags, fused parts or gaps DEL508-508): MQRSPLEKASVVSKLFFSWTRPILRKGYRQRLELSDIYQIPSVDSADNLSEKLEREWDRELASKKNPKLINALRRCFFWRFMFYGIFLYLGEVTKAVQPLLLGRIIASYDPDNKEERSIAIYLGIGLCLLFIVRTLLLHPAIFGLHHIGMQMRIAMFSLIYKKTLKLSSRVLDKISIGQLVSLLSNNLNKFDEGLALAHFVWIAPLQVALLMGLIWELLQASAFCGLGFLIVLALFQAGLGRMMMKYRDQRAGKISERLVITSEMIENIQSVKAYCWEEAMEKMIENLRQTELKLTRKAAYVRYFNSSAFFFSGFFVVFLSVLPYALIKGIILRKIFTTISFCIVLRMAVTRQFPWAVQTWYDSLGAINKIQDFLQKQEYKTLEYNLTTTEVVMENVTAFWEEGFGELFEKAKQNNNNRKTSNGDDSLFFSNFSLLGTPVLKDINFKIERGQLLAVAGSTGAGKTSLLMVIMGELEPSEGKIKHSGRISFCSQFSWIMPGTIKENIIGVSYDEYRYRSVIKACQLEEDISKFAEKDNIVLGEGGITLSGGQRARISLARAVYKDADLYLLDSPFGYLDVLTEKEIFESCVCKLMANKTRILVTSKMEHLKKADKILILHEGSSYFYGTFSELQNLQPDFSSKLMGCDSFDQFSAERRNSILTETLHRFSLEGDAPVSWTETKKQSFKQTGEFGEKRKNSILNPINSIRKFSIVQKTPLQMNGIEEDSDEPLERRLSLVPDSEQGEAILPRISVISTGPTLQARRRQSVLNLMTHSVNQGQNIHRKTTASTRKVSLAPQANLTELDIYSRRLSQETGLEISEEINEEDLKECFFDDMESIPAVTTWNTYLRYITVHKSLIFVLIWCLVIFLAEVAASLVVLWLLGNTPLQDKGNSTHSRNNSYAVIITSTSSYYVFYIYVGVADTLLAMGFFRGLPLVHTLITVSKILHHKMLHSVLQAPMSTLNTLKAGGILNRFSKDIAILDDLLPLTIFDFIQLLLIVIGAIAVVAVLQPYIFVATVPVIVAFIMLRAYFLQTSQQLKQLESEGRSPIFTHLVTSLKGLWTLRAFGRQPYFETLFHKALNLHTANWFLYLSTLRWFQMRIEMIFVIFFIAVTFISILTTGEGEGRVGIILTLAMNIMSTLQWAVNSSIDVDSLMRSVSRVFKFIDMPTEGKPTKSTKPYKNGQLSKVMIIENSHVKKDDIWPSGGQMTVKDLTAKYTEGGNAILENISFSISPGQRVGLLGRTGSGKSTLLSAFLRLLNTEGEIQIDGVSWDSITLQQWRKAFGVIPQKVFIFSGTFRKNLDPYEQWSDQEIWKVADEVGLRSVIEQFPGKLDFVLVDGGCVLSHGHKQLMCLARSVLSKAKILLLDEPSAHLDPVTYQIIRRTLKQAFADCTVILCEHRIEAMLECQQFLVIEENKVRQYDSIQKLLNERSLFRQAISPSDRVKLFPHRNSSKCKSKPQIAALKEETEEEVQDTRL
T1 sequence (P13569 whole entry): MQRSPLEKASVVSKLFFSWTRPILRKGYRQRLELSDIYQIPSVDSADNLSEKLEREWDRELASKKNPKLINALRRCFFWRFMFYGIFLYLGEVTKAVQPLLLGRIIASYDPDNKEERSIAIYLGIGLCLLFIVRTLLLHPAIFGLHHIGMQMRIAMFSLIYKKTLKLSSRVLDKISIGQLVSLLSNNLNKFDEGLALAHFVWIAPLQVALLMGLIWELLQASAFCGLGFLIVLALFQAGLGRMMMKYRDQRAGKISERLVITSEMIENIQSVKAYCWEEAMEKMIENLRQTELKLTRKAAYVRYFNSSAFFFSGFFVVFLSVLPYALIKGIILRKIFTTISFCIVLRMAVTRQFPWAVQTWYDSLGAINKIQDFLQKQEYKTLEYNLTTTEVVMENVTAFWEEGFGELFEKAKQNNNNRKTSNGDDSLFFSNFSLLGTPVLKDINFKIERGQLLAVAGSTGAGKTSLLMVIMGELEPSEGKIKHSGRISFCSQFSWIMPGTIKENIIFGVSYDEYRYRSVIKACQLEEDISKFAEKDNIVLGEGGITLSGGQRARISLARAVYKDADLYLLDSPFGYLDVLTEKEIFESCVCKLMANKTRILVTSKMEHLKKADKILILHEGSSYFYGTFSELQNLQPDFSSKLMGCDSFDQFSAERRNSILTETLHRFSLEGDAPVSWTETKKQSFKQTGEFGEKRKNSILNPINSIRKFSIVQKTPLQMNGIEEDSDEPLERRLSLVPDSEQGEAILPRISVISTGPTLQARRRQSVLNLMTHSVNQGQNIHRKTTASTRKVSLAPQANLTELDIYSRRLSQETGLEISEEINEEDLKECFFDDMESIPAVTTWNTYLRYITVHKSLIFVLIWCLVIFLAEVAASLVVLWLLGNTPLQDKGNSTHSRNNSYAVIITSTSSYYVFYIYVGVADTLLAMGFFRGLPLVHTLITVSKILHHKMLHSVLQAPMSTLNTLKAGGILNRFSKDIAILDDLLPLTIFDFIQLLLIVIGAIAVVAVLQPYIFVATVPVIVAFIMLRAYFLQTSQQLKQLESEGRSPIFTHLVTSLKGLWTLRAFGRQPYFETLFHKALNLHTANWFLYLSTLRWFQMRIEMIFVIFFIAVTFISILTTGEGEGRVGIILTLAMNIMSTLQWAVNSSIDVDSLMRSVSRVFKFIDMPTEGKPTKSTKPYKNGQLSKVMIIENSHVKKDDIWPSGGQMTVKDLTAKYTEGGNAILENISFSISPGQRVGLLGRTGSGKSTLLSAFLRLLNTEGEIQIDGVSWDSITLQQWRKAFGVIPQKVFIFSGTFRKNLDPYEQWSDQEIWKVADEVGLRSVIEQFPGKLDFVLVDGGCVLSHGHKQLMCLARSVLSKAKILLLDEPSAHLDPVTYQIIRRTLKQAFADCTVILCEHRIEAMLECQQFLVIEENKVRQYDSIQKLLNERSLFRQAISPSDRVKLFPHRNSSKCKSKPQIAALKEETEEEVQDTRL

For the compound `CN(C(=O)c1cccc(-n2nc(C(F)(F)F)c3c2[C@@H](Oc2ccc(C(=O)O)cc2)CCC3)c1)c1ccc2c(c1)OC(F)(F)O2` [ARN23765], the “Competition: CFTR recovered in pull-down by PAP_1 DS-biot or PAP_2 DS-biot after preincubation with competitor” value on wt-CFTR and on F508del-CFTR was “markedly reduced amount of the recovered protein” in each case.
